The text below walks through data of PMC9856072, “Complexed Crystal Structure of the Dihydroorotase Domain of Human CAD Protein with the Anticancer Drug 5-Fluorouracil” (Biomolecules, 2023).

Where a chain is given by its changes, count along the chain named.

Assay type in all cases: binding
Assay [1] addresses T1, dihydroorotase domain of human CAD (huDHOase) (Homo sapiens, UniProt P27708, T1562A).
T1 construct: residues 1456–1846 in human CAD protein, C-terminal His tag
T1 sequence (P27708 1456-1846 T1562A): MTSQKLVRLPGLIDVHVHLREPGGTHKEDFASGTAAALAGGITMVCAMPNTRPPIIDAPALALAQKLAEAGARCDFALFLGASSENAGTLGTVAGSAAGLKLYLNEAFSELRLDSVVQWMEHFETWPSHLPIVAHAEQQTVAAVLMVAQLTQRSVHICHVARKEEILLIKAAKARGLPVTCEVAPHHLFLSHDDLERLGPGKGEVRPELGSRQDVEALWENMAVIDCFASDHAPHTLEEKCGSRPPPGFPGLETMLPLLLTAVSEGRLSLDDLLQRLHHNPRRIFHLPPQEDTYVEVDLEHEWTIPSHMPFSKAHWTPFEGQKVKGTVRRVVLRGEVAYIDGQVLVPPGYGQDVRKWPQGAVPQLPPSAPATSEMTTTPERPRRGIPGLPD
The assay is described as follows: intrinsic fluorescence quenching titration.

The target in assay [2] is T2, dihydroorotase domain of human CAD (huDHOase) (Homo sapiens, UniProt P27708).
T2 construct: residues 1456–1846 in human CAD protein, C-terminal His tag
T2 sequence (P27708 1456-1846): T1 sequence (P27708 1456-1846 T1562A) with A107T
The assay is described as follows: co-crystal structure ([…] Å) and intrinsic fluorescence quenching.

For assay [3], the target named is T3, dihydroorotase domain of human CAD (huDHOase) (Homo sapiens, UniProt P27708, R1475A).
T3 construct: residues 1456–1846 in human CAD protein, C-terminal His tag
T3 sequence (P27708 1456-1846 R1475A): T1 sequence (P27708 1456-1846 T1562A) with R20A, A107T
The assay is described as follows: intrinsic fluorescence quenching titration.

Assay [4] concerns the target T2, dihydroorotase domain of human CAD (huDHOase). The assay is described as follows: co-crystal structure ([…] Å).

Usually Kd stands for the free concentration of one partner at which half of the binding sites on the other are occupied at equilibrium, for simple one-to-one binding. Read a low Kd as higher affinity. Take `O=c1[nH]cc(F)c(=O)[nH]1` [5-FU, 5-fluorouracil]: the results for the Kd in assay [1], in assay [2] and in assay [3] were 146 ± 2.1 µM, 91.2 ± 1.7 µM and 161.5 ± 1.6 µM, respectively.
As for `O=C(O)CC(O)C(=O)O` (stereo not shown) [malate], the “co-crystal structure (1.64 Å)” value in assay [4] is given as “This complexed structure revealed that malate is bound at the active site of huDHOase”.
